We go through two compounds from patent US20060172992A1, “Therapeutic agent for overactive bladder resulting from cerebral infarction” (EISAI CO., LTD., priority 2004, published 2006).

“Also recorded” adds a separate entry of the source.

Data set [1] concerns rat with overactive bladder caused by cerebrovascular disease. The conditions noted are these: cited from earlier work.
For data set [2], the system named is human with overactive bladder caused by cerebrovascular disease. Conditions: cited from earlier work.
Data set [3] has as its system overactive bladder model rats (cerebral infarction by left middle cerebral artery embolization). The experiment in a line: Bladder pressure measurement after intravenous administration, cerebral infarction rats (CI group).
The test system of data set [4] is cerebral infarction rats. The data set is described as follows: Bladder pressure measurement after intraventricular administration, cerebral infarction rats. Format: in vivo, rat. On the procedure: After producing cerebral infarction rats, drug infusion tubes were placed in the lateral ventricles of the rats.
The process was conducted in the same manner as Example 5 except that metal tubes were inserted into lateral ventricles upon producing cerebral infarction rats. […] Feasibility of intraventricular administration was determined after injecting ink into the brain, sacrificing the rats and removing the brains to verify on their faces. […] As vehicle, saline was infused for […]. Experiments of five examples for each concentration were conducted.

[5] abbreviates: 5×10^−4 mg/kg and 5×10^−5 mg/kg.

As to `COc1ccc(C(=O)N2CCCC2=O)cc1` [Aniracetam], the micturition reflex entry in data set [1] and in data set [2] was “suppression of micturition reflex is observed” each time.
For `COc1cc2c(cc1OC)C(=O)C(CC1CCN(Cc3ccccc3)CC1)C2.Cl` (stereo not drawn) [donepezil hydrochloride, 1-benzyl-4-[(5,6-dimethoxy-1-indanone)-2-yl]methylpiperidine hydrochloride], the micturition contraction pressure entry in data set [3] (setting [5]) is reported as “no change”; in data set [3] (CI group, 5×10^−1 mg/kg), “significantly increased”; in data set [4] (respective doses, versus vehicle, hydrochloride), “No change; also recorded: no significant difference”. In data set [3] (setting [5]), the retained urine result is reported as “little retained urine”. Besides, the “bladder capacity, difference from vehicle administration group” value was “significant difference from the vehicle administration group” in data set [3] (CI group, 5×10^−4 mg/kg and 5×10^−5 mg/kg, hydrochloride); “increased with a significant margin” in data set [4] (cerebral infarction rats, 5 μl of 5×10^−5 mg/ml and 5×10^−6 mg/ml, hydrochloride). For the same compound, the “increase in bladder capacity (percentage of change from control)” value in data set [3] (CI group, 5×10^−5 mg/kg) is reported as 52.8%. The “percentage of change in bladder capacity” value in data set [3] (CI group, 5×10^−4 to 5×10^−5 mg/kg (bladder capacity most increased)) is 52.8%. In addition, the bladder capacity entry is on record as “increased the bladder capacities; also recorded: gradually increased” in data set [3] (CI group, 5×10^−7 to 5×10^−1 mg/kg every 30 minutes, hydrochloride, 1 mg/kg) and “notably increased” in data set [4] (cerebral infarction rats, 5 μl of 5×10^−7 to 5×10^−4 mg/ml, hydrochloride). For the same compound, the “micturition contraction pressure, versus vehicle administration group” value in data set [3] (CI group, 5×10^−7 to 5×10^−2 mg/kg) is given as “no significant difference”. Besides, the “bladder capacity, dose comparison” value in data set [4] (cerebral infarction group, 5×10^−5 mg/ml) is reported as “most increased”. Also, the “increase in bladder capacity” value in data set [4] (cerebral infarction rats, 5×10^−5 mg/ml) was 95.8%.
